Experimental data: ChEMBL document CHEMBL3046590, “Design and synthesis of some thiazolotriazolyl esters as anti-inflammatory and analgesic agents” (Med Chem Res, 2012)

How the values were obtained:
[1] = system: Mus musculus; assay: Anti-inflammatory activity in Mus musculus BALB/c (mouse) assessed as inhibition of carrageenan-induced paw swelling at 100 mg/kg, po administered 1 hr followed by carrageenan challenge measured at 270 min relative to control; type: functional
[2] = system: Mus musculus; assay: Anti-inflammatory activity in Mus musculus BALB/c (mouse) assessed as carrageenan-induced paw swelling at 50 mg/kg, po administered 1 hr followed by carrageenan challenge measured at 180 min (reference value: 52 +/- 4.6 x 10^-2 mm); type: functional
[3] = system: Mus musculus; assay: Toxicity in Mus musculus BALB/c (mouse) assessed as mortality at 50 to 200 mg/kg, po after 72 hr; type: organism-based; parameters: dose 50-200 mg/kg, route oral; details: in vivo
[4] = system: Mus musculus; assay: Anti-inflammatory activity in Mus musculus BALB/c (mouse) assessed as carrageenan-induced paw swelling at 100 mg/kg, po administered 1 hr followed by carrageenan challenge measured at 360 min (reference value: 105 +/- 4.5 x 10^-2 mm); type: functional
[5] = system: Mus musculus; assay: Anti-inflammatory activity in Mus musculus BALB/c (mouse) assessed as carrageenan-induced paw swelling at 100 mg/kg, po administered 1 hr followed by carrageenan challenge measured at 180 min (reference value: 52 +/- 4.6 x 10^-2 mm); type: functional
[6] = system: Mus musculus; assay: Toxicity in Mus musculus BALB/c (mouse) assessed as behavioral changes at 50 to 200 mg/kg, po after 72 hr; type: organism-based; parameters: dose 50-200 mg/kg, route oral; details: in vivo
[7] = system: Mus musculus; assay: Anti-inflammatory activity in Mus musculus BALB/c (mouse) assessed as carrageenan-induced paw swelling at 50 mg/kg, po administered 1 hr followed by carrageenan challenge measured at 360 min (reference value: 105 +/- 4.5 x 10^-2 mm); type: functional
[8] = system: Mus musculus; assay: Anti-inflammatory activity in Mus musculus BALB/c (mouse) assessed as carrageenan-induced paw swelling at 100 mg/kg, po administered 1 hr followed by carrageenan challenge measured at 270 min (reference value: 78 +/- 8.4 x 10^-2 mm); type: functional
[9] = system: Mus musculus; assay: Anti-inflammatory activity in Mus musculus BALB/c (mouse) assessed as inhibition of carrageenan-induced paw swelling at 100 mg/kg, po administered 1 hr followed by carrageenan challenge measured at 360 min relative to control; type: functional
[10] = system: Mus musculus; assay: Anti-inflammatory activity in Mus musculus BALB/c (mouse) assessed as carrageenan-induced paw swelling at 200 mg/kg, po administered 1 hr followed by carrageenan challenge measured at 90 min (reference value: 39 +/- 5.6 x 10^-2 mm); type: functional
[11] = system: Mus musculus; assay: Anti-inflammatory activity in Mus musculus BALB/c (mouse) assessed as carrageenan-induced paw swelling at 200 mg/kg, po administered 1 hr followed by carrageenan challenge measured at 360 min (reference value: 105 +/- 4.5 x 10^-2 mm); type: functional
[12] = system: Mus musculus; assay: Anti-inflammatory activity in Mus musculus BALB/c (mouse) assessed as carrageenan-induced paw swelling at 200 mg/kg, po administered 1 hr followed by carrageenan challenge measured at 270 min (reference value: 78 +/- 8.4 x 10^-2 mm); type: functional
[13] = system: Mus musculus; assay: Anti-inflammatory activity in Mus musculus BALB/c (mouse) assessed as carrageenan-induced paw swelling at 100 mg/kg, po administered 1 hr followed by carrageenan challenge measured at 90 min (reference value: 39 +/- 5.6 x 10^-2 mm); type: functional
[14] = system: Mus musculus; assay: Anti-inflammatory activity in Mus musculus BALB/c (mouse) assessed as inhibition of carrageenan-induced paw swelling at 100 mg/kg, po administered 1 hr followed by carrageenan challenge measured at 180 min relative to control; type: functional
[15] = system: Mus musculus; assay: Anti-inflammatory activity in Mus musculus BALB/c (mouse) assessed as carrageenan-induced paw swelling at 50 mg/kg, po administered 1 hr followed by carrageenan challenge measured at 270 min (reference value: 78 +/- 8.4 x 10^-2 mm); type: functional
[16] = system: Mus musculus; assay: Antioxidant activity in Mus musculus BALB/c (mouse) stomach assessed as TBARS level at 100 mg/kg, po (reference value: 80.4 +/- 5.4 nmol/g ); type: functional
[17] = system: Mus musculus; assay: Anti-inflammatory activity in Mus musculus BALB/c (mouse) assessed as carrageenan-induced paw swelling at 50 mg/kg, po administered 1 hr followed by carrageenan challenge measured at 90 min (reference value: 39 +/- 5.6 x 10^-2 mm); type: functional
[18] = system: Mus musculus; assay: Anti-inflammatory activity in Mus musculus BALB/c (mouse) assessed as carrageenan-induced paw swelling at 200 mg/kg, po administered 1 hr followed by carrageenan challenge measured at 180 min (reference value: 52 +/- 4.6 x 10^-2 mm); type: functional
[19] = system: Mus musculus; assay: Anti-inflammatory activity in Mus musculus BALB/c (mouse) assessed as inhibition of carrageenan-induced paw swelling at 50 mg/kg, po administered 1 hr followed by carrageenan challenge measured at 270 min relative to control; type: functional
[20] = system: Mus musculus; assay: Analgesic activity in Mus musculus BALB/c (mouse) assessed as inhibition of acetic acid-induced writhing at 100 mg/kg, po administered 1 hr followed by acetic acid challenge measured for 10 min; type: functional
[21] = system: Mus musculus; assay: Anti-inflammatory activity in Mus musculus BALB/c (mouse) assessed as inhibition of carrageenan-induced paw swelling at 50 mg/kg, po administered 1 hr followed by carrageenan challenge measured at 360 min relative to control; type: functional
[22] = system: Mus musculus; assay: Anti-inflammatory activity in Mus musculus BALB/c (mouse) assessed as inhibition of carrageenan-induced paw swelling at 200 mg/kg, po administered 1 hr followed by carrageenan challenge measured at 270 min relative to control; type: functional
[23] = system: Mus musculus; assay: Anti-inflammatory activity in Mus musculus BALB/c (mouse) assessed as inhibition of carrageenan-induced paw swelling at 200 mg/kg, po administered 1 hr followed by carrageenan challenge measured at 360 min relative to control; type: functional

SMILES	inhibition in vivo at 100 mg/kg [1]	Activity [2]	Activity [3]	Activity [4]	Activity [5]	Activity [6]	Activity [7]	Activity [8]	inhibition in vivo at 100 mg/kg [9]	Activity [10]	Activity [11]	Activity [12]	Activity [13]	inhibition in vivo at 100 mg/kg [14]	Activity [15]	Activity [16]	Activity [17]	Activity [18]	inhibition in vivo at 100 mg/kg [20]	inhibition in vivo at 50 mg/kg [21]	further results
CCOC(=O)Cc1csc2nc(-c3ccccc3)nn12	31.1%	53.5 ×10⁻² mm	Non-toxic	87.5 ×10⁻² mm	40 ×10⁻² mm	Non-toxic	102 ×10⁻² mm	53.7 ×10⁻² mm	16.7%	35.2 ×10⁻² mm	105.4 ×10⁻² mm	75 ×10⁻² mm	45 ×10⁻² mm	23.1%	79.7 ×10⁻² mm	174.1 nmol/g	76.3 ×10⁻² mm	48.1 ×10⁻² mm			
CCOC(=O)Cc1csc2nc(Cc3cc(OC)c(OC)c(OC)c3)nn12		46 ×10⁻² mm	Non-toxic	129.5 ×10⁻² mm	32.3 ×10⁻² mm	Non-toxic	87.2 ×10⁻² mm	105 ×10⁻² mm		38 ×10⁻² mm	93.4 ×10⁻² mm	70.3 ×10⁻² mm	40.8 ×10⁻² mm	37.9%	61.3 ×10⁻² mm	157.1 nmol/g	55.1 ×10⁻² mm	42.5 ×10⁻² mm	62.8%	16.9%	inhibition in vivo at 50 mg/kg [19]: 21.4%
CCOC(=O)c1sc2nc(-c3ccc(Cl)cc3)nn2c1C		70 ×10⁻² mm	Non-toxic	75.4 ×10⁻² mm	42.8 ×10⁻² mm	Non-toxic	117.8 ×10⁻² mm	69.9 ×10⁻² mm	28.2%	35.7 ×10⁻² mm	98.3 ×10⁻² mm	69.6 ×10⁻² mm	45.5 ×10⁻² mm	17.7%	91.1 ×10⁻² mm	116.9 nmol/g	66.1 ×10⁻² mm	45.7 ×10⁻² mm	89.7%		
COc1ccc(CCC2=NC(=S)N=N2)cc1	30.8%	46.8 ×10⁻² mm	Non-toxic	80.5 ×10⁻² mm	25.3 ×10⁻² mm	Non-toxic	78.2 ×10⁻² mm	54 ×10⁻² mm	23.3%	42.1 ×10⁻² mm	87.6 ×10⁻² mm	66.3 ×10⁻² mm	36.3 ×10⁻² mm	51.3%	73.6 ×10⁻² mm	116.2 nmol/g	50 ×10⁻² mm	46.4 ×10⁻² mm	24.3%	25.5%	inhibition in vivo at 200 mg/kg [22]: 15%; inhibition in vivo at 200 mg/kg [23]: 16.6%
